Experimental data published in ChEMBL document CHEMBL1201862, “PubChem BioAssay data set” (2004).
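The compound was tested at five concentrations on cells cultured in 96-well plates, with a 48-hour exposure period. GI50 is the concentration that inhibits growth by half.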 The source made the active and inactive calls. Rule as the data show it: active = GI50 up to about 1.1 µM and inactive = higher.

Experiments:
Assay in all cases: NCI tumour cell line growth inhibition, 48 h
SR = tested on: SR
MOLT-4 = tested on: MOLT-4
HL-60 = tested on: HL-60
BT-549 = tested on: BT-549
CCRF-CEM = tested on: CCRF-CEM
MDA-N = tested on: MDA-N
NCI-H522 = tested on: NCI-H522
TK-10 = tested on: TK-10
UACC-257 = tested on: UACC-257
OVCAR-5 = tested on: OVCAR-5
HCT-116 = tested on: HCT-116
SK-MEL-28 = tested on: SK-MEL-28
UACC-62 = tested on: UACC-62
HT-29 = tested on: HT-29
Malme-3M = tested on: Malme-3M
HCT-15 = tested on: HCT-15
SN12C = tested on: SN12C
PC-3 = tested on: PC-3
SF-268 = tested on: SF-268
Hs-578T = tested on: Hs-578T
OVCAR-8 = tested on: OVCAR-8
SNB-75 = tested on: SNB-75
T47D = tested on: T47D
A549 = tested on: A549
SF-539 = tested on: SF-539
UO-31 = tested on: UO-31
DU-145 = tested on: DU-145
SK-MEL-2 = tested on: SK-MEL-2
NCI-H226 = tested on: NCI-H226
HOP-92 = tested on: HOP-92
MDA-MB-231 = tested on: MDA-MB-231
ACHN = tested on: ACHN
MDA-MB-435 = tested on: MDA-MB-435
K562 = tested on: K562
786-0 = tested on: 786-0
EKVX = tested on: EKVX
HCC 2998 = tested on: HCC 2998
MCF7 = tested on: MCF7
M14 = tested on: M14
SF-295 = tested on: SF-295
CAKI-1 = tested on: CAKI-1
NCI-H23 = tested on: NCI-H23
OVCAR-3 = tested on: OVCAR-3
RXF 393 = tested on: RXF 393
OVCAR-4 = tested on: OVCAR-4
NCI/ADR-RES = tested on: NCI/ADR-RES
SK-MEL-5 = tested on: SK-MEL-5
KM12 = tested on: KM12
SNB-19 = tested on: SNB-19
SK-OV-3 = tested on: SK-OV-3
COLO 205 = tested on: COLO 205
NCI-H460 = tested on: NCI-H460
U-251 = tested on: U-251
SW-620 = tested on: SW-620
LOX IMVI = tested on: LOX IMVI
RPMI-8226 = tested on: RPMI-8226
IGROV-1 = tested on: IGROV-1
HOP-62 = tested on: HOP-62
A498 = tested on: A498

With `CCOc1ccc2nc(NC(NC(=O)c3cccnc3)(C(F)(F)F)C(F)(F)F)sc2c1` the GI50 (SR) was 24.9 µM (inactive), the GI50 (MOLT-4) was 20.4 µM (inactive) and the GI50 (HL-60) was 32.4 µM (inactive). For the same molecule, the GI50 (BT-549) was 30.2 µM (inactive), the GI50 (CCRF-CEM) was 17.1 µM (inactive) and the GI50 (MDA-N) was 15.6 µM (inactive). The GI50 (NCI-H522) was 23.4 µM (inactive), the GI50 (TK-10) was 33.9 µM (inactive) and the GI50 (UACC-257) was 25.5 µM (inactive). The GI50 (OVCAR-5) was 25.6 µM (inactive), the GI50 (HCT-116) was 25.4 µM (inactive) and the GI50 (SK-MEL-28) was 35.2 µM (inactive). For the same molecule, the GI50 (UACC-62) was 25.6 µM (inactive), the GI50 (HT-29) was 14.1 µM (inactive) and the GI50 (Malme-3M) was 51.1 µM (inactive). The GI50 (HCT-15) was 26 µM, the GI50 (SN12C) was 25.2 µM (inactive) and the GI50 (PC-3) was 31.7 µM (inactive). The GI50 (SF-268) was 56.8 µM (inactive), the GI50 (Hs-578T) was > 100 µM (inactive) and the GI50 (OVCAR-8) was 26.7 µM (inactive). For the same molecule, the GI50 (SNB-75) was 23.3 µM (inactive), the GI50 (T47D) was 21 µM (inactive) and the GI50 (A549) was 31.4 µM (inactive). The GI50 (SF-539) was 49.2 µM (inactive), the GI50 (UO-31) was 6.84 µM (inactive) and the GI50 (DU-145) was 35.7 µM (inactive). The GI50 (SK-MEL-2) was 38.5 µM (inactive), the GI50 (NCI-H226) was 44 µM (inactive) and the GI50 (HOP-92) was 20.5 µM (inactive). The GI50 (MDA-MB-231) was 66.1 µM (inactive), the GI50 (ACHN) was 29.3 µM (inactive) and the GI50 (MDA-MB-435) was 22.2 µM (inactive). The GI50 (K562) was 38.4 µM (inactive), the GI50 (786-0) was 26.5 µM (inactive) and the GI50 (EKVX) was 22.6 µM (inactive). The GI50 (HCC 2998) was 22.4 µM (inactive), the GI50 (MCF7) was 25.5 µM (inactive) and the GI50 (M14) was 34.1 µM (inactive). For the same molecule, the GI50 (SF-295) was 42 µM (inactive), the GI50 (CAKI-1) was 38.3 µM (inactive) and the GI50 (NCI-H23) was 22.8 µM (inactive). For the same molecule, the GI50 (OVCAR-3) was 32.6 µM (inactive), the GI50 (RXF 393) was 21 µM (inactive) and the GI50 (OVCAR-4) was 24 µM (inactive). The GI50 (NCI/ADR-RES) was 25.8 µM (inactive), the GI50 (SK-MEL-5) was 20.5 µM (inactive) and the GI50 (KM12) was 29.3 µM (inactive). For the same molecule, the GI50 (SNB-19) was 51.9 µM (inactive), the GI50 (SK-OV-3) was 93.8 µM (inactive) and the GI50 (COLO 205) was 34.1 µM (inactive). The GI50 (NCI-H460) was 28.6 µM (inactive), the GI50 (U-251) was 42.5 µM (inactive) and the GI50 (SW-620) was 46.1 µM (inactive).

`CCOC(=O)C(Cl)(Cl)/S(=N\S(=O)(=O)c1ccccc1)NC(=O)c1ccccc1` (stereo not given) was tested, and the GI50 (SR) was > 100 µM (inactive), the GI50 (LOX IMVI) was > 100 µM (inactive) and the GI50 (RPMI-8226) was > 100 µM (inactive). For the same molecule, the GI50 (MOLT-4) was > 100 µM (inactive), the GI50 (HL-60) was 0.65 µM (active) and the GI50 (BT-549) was > 100 µM (inactive). The GI50 (CCRF-CEM) was > 100 µM (inactive), the GI50 (MDA-N) was > 100 µM (inactive) and the GI50 (TK-10) was > 100 µM (inactive). The GI50 (UACC-257) was > 100 µM (inactive), the GI50 (OVCAR-5) was > 100 µM (inactive) and the GI50 (HCT-116) was > 100 µM (inactive). The GI50 (SK-MEL-28) was > 100 µM (inactive), the GI50 (UACC-62) was > 100 µM (inactive) and the GI50 (HT-29) was > 100 µM (inactive). For the same molecule, the GI50 (Malme-3M) was > 100 µM (inactive), the GI50 (HCT-15) was > 100 µM and the GI50 (SN12C) was > 100 µM (inactive). For the same molecule, the GI50 (PC-3) was > 100 µM (inactive), the GI50 (SF-268) was > 100 µM (inactive) and the GI50 (Hs-578T) was > 100 µM (inactive). For the same molecule, the GI50 (IGROV-1) was > 100 µM (inactive), the GI50 (OVCAR-8) was > 100 µM (inactive) and the GI50 (SNB-75) was > 100 µM (inactive). The GI50 (T47D) was > 100 µM (inactive), the GI50 (A549) was > 100 µM (inactive) and the GI50 (SF-539) was > 100 µM (inactive). For the same molecule, the GI50 (UO-31) was > 100 µM (inactive), the GI50 (DU-145) was > 100 µM (inactive) and the GI50 (SK-MEL-2) was > 100 µM (inactive). For the same molecule, the GI50 (NCI-H226) was > 100 µM (inactive), the GI50 (HOP-62) was > 100 µM (inactive) and the GI50 (HOP-92) was > 100 µM (inactive). The GI50 (MDA-MB-231) was > 100 µM (inactive), the GI50 (ACHN) was > 100 µM (inactive) and the GI50 (MDA-MB-435) was > 100 µM (inactive). The GI50 (K562) was > 100 µM (inactive), the GI50 (786-0) was > 100 µM (inactive) and the GI50 (EKVX) was > 100 µM (inactive). The GI50 (MCF7) was > 100 µM (inactive), the GI50 (M14) was > 100 µM (inactive) and the GI50 (SF-295) was > 100 µM (inactive). For the same molecule, the GI50 (NCI-H23) was > 100 µM (inactive), the GI50 (OVCAR-3) was > 100 µM (inactive) and the GI50 (RXF 393) was > 100 µM (inactive). The GI50 (OVCAR-4) was > 100 µM (inactive), the GI50 (NCI/ADR-RES) was > 100 µM (inactive) and the GI50 (SK-MEL-5) was > 100 µM (inactive). The GI50 (KM12) was > 100 µM (inactive), the GI50 (SNB-19) was > 100 µM (inactive) and the GI50 (SK-OV-3) was > 100 µM (inactive). The GI50 (A498) was > 100 µM (inactive), the GI50 (COLO 205) was > 100 µM (inactive) and the GI50 (NCI-H460) was > 100 µM (inactive). For the same molecule, the GI50 (U-251) was > 100 µM (inactive) and the GI50 (SW-620) was > 100 µM (inactive).
